According to PubChem BioAssay (NCI):
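Dose response: 5 concentrations. Exposure: 48 h. Format: 96-well plates. Endpoint: linear interpolation; highest concentration if not reached. At the GI50, growth is halved. TGI is the concentration that stops growth completely.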

How the values were obtained:
Test in all cases: DTP human tumour cell line panel, 48 h
[1] = tested on: RPMI-8226 leukemia
[2] = tested on: OVCAR-3 ovarian
[3] = tested on: COLO 205 colon
[4] = tested on: NCI-H226 lung
[5] = tested on: HS 578T breast
[6] = tested on: PC-3 prostate
[7] = tested on: IGROV1 ovarian
[8] = tested on: SN12C renal
[9] = tested on: CAKI-1 renal
[10] = tested on: K-562 leukemia

Structure (SMILES)	GI50 [1] [µM]	TGI [1] [µM]	GI50 [2] [µM]	TGI [2] [µM]	GI50 [3] [µM]	TGI [3] [µM]	GI50 [4] [µM]	TGI [4] [µM]	GI50 [5] [µM]	TGI [5] [µM]	GI50 [6] [µM]	TGI [6] [µM]	GI50 [7] [µM]	TGI [7] [µM]	GI50 [8] [µM]	TGI [8] [µM]	GI50 [9] [µM]	TGI [9] [µM]	GI50 [10] [µM]	TGI [10] [µM]
CC1(C)CCc2c(c(N=Nc3ccccc3F)c3ccccc3c2O)O1	> 100	> 100	20.5	51.2	> 100	> 100	38.7	> 100	28.6	99.7	59.8	> 100	32.4	> 100	22.7	53.1	31.6	> 100	> 100	> 100
COc1ccc(C[C@]23CCC(=O)N2CCc2cc(OC)c(O)cc23)cc1O	–	> 100	–	> 100	–	> 100	–	> 100	–	–	–	–	–	> 100	–	> 100	–	> 100	–	> 100
COc1ccccc1NC(=O)C1=C(C)NC(C)=C(C(=O)Nc2ccccc2OC)C1c1ccccc1Cl	–	> 100	–	> 100	–	> 100	–	> 100	–	–	–	–	–	> 100	–	> 100	–	> 100	–	> 100
O=C(O)CCSC(=O)Nc1cccc2ccccc12	–	> 100	–	> 100	–	> 100	–	> 100	–	–	–	–	–	> 100	–	> 100	–	> 100	–	> 100
CC[O-].CC[O-].O=C([CH-]C(=O)c1ccccc1)CCCCCCC(=O)[CH-]C(=O)c1ccccc1.[Ti+4]	> 100	> 100	> 100	> 100	> 100	> 100	–	–	–	–	–	–	> 100	> 100	> 100	> 100	> 100	> 100	> 100	> 100
CN=C1CN=C(OP(=O)(N2CCOCC2)N2CCOCC2)c2cc(Cl)ccc2N1	–	> 100	–	> 100	–	–	–	> 100	–	–	–	–	–	–	–	> 100	–	> 100	–	> 100
COc1ccc(-c2cc(-c3ccc(OC)cc3)nc(NCCCNc3ccnc4cc(Cl)ccc34)n2)cc1	–	–	1.7	3.14	1.72	3.58	11.3	28.2	14.9	44.8	–	–	1.51	3.12	1.71	3.34	11.8	25.8	1.79	4.6
COc1ccc(-c2oc3c(OC)c(OC)c(OC)c(O)c3c(=O)c2OC)cc1O	–	–	< 0.01	–	–	23.5	–	–	–	–	–	–	0.0358	52.1	< 0.01	> 100	< 0.01	> 100	–	13.5
Cc1ccc(/C=N/NS(=O)(=O)c2ccccc2)cc1C	–	> 100	–	> 100	–	> 100	–	> 100	–	–	–	–	–	> 100	–	> 100	–	> 100	–	> 100
CC(=O)[CH-]C(C)=O.CC(=O)[CH-]C(C)=O.[Cl-].[O]=[V]	–	–	25.5	51.6	18.2	34.5	27.5	76.1	–	–	–	–	11.1	64.2	58.1	> 100	55.3	> 100	–	–
COc1cccc(C=O)c1[O-].COc1cccc(C=O)c1[O-].[Zn+2]	–	> 100	–	92.6	–	> 100	–	> 100	–	–	–	–	–	> 100	–	> 100	–	–	–	> 100
CC(=O)OC1=C2CC[C@@H]3C(CC[C@@]4(C)C3CC[C@@H]4OC(C)=O)[C@@]2(C)CC(C#N)C1=O (some centres undefined)	–	46.9	–	53.3	–	43.5	–	> 100	–	–	–	–	–	61.4	–	> 100	–	–	–	88.1
C=CCOc1ccc(N)c([N+](=O)[O-])c1	–	> 100	–	–	–	> 100	–	> 100	–	> 100	–	> 100	–	> 100	–	> 100	–	> 100	–	> 100
CS(=O)(=O)NNS(=O)(=O)c1ccc(F)cc1	–	> 100	–	> 100	–	> 100	–	> 100	–	–	–	–	–	> 100	–	> 100	–	> 100	–	> 100
COc1c(C)c(OC)c(C(=O)CC(C)C)c(OC)c1C	–	73.1	–	> 100	–	> 100	–	> 100	–	> 100	–	> 100	–	> 100	–	> 100	–	> 100	–	–
Cc1nc2ccccc2c(/C=C/c2ccccc2)c1C(=O)/C=C/c1ccc(C(F)(F)F)cc1	0.394	3.85	–	–	2.13	5.4	1.73	3.67	–	–	1.55	5.02	0.414	2.02	1.73	4.16	1.14	2.44	0.775	> 100
NNc1nc2ccccc2o1	–	> 100	–	–	–	> 100	–	> 100	–	> 100	–	> 100	–	> 100	–	> 100	–	> 100	–	> 100
CCOC(=O)CNC(=O)OCc1ccccc1	–	–	–	> 100	–	> 100	–	–	–	–	–	–	–	> 100	–	> 100	–	> 100	–	> 100
CO/C=C(\Br)c1ccc2c(c1)OCO2	–	–	–	> 100	–	–	–	> 100	–	–	–	–	–	> 100	–	> 100	–	> 100	–	> 100
CC[C@]12C=CCN3CC[C@@]4(c5ccc(OC)cc5N(C)[C@H]4[C@@](O)(C(=O)OC)[C@@H]1OC(=O)CCC(=O)O[C@H]1CC[C@H]4[C@@H]5CC[C@H]6CC(=O)CC[C@]6(C)[C@H]5CC[C@]14C)[C@@H]32	–	–	3.05	> 100	–	–	3.84	> 100	3.65	> 100	0.703	> 100	3.17	> 100	2.88	36.2	–	–	–	–

Structure (SMILES)	GI50 [1] [µM]	TGI [1] [µM]	GI50 [2] [µM]	TGI [2] [µM]	GI50 [3] [µM]	TGI [3] [µM]	GI50 [4] [µM]	TGI [4] [µM]	GI50 [5] [µM]	TGI [5] [µM]	GI50 [6] [µM]	TGI [6] [µM]	GI50 [7] [µM]	TGI [7] [µM]	GI50 [8] [µM]	TGI [8] [µM]	GI50 [9] [µM]	TGI [9] [µM]	GI50 [10] [µM]	TGI [10] [µM]
O=C(CC1(O)C(=O)Nc2ccccc21)c1ccc(Cl)cc1Cl (centres undefined)	–	> 100	–	> 100	–	> 100	–	> 100	–	–	–	–	–	> 100	–	> 100	–	> 100	–	> 100
O=S1(=O)c2cc(S(=O)(=O)n3ccnc3)ccc2NC2=NCCCN21	–	> 100	–	47.8	–	35.2	–	46.7	–	–	–	–	–	> 100	–	> 100	–	> 100	–	> 100
CCc1cccc(C(C)CC)c1NC(=O)C(=O)Cc1nc2ccccc2o1 (centres undefined)	–	> 50	–	> 50	–	> 50	–	> 50	–	–	–	–	–	> 50	–	> 50	–	> 50	–	> 50
COC(=O)/C(=N\NC(N)=O)C(C#N)c1ccccc1 (centres undefined)	–	> 100	–	> 100	–	> 100	–	> 100	–	–	–	–	–	–	–	> 100	–	–	–	> 100
CC(=O)NCc1c(C(N)=O)ncn1Cc1ccccc1	–	> 100	–	> 100	–	> 100	–	–	–	–	–	–	–	> 100	–	> 100	–	> 100	–	> 100
COc1cc(/C=C2\NC(=O)C3Cc4c(OC)c(C)c(OC)c(OC)c4C2N3C)c(OC)c(C)c1OC (centres undefined)	–	–	–	> 100	–	> 100	–	> 100	–	–	–	–	–	> 100	–	> 100	–	> 100	–	> 100
O=C1c2ccccc2C(=O)c2c1oc1c2c(=O)[nH]c2ccc(Cl)cc21	0.387	2.64	0.239	0.557	10.5	27.6	0.143	0.355	0.264	1.37	0.182	0.46	0.222	0.746	0.198	0.463	–	–	0.375	2.01
C1C[OH+]CCNCC[OH+]CC[OH+]CCN1.N.[Cl-].[Pt+4]	27.5	> 100	89.1	> 100	18.9	47.7	38.2	> 100	–	–	–	–	49.6	> 100	> 100	> 100	29	> 100	41.5	> 100
O=C1c2cc3c(cc2-c2c1c1ccc(F)cc1c(=O)n2C[C@H](O)[C@H](O)[C@H](O)CO)OCO3	0.505	5.6	0.167	0.431	0.193	0.959	–	–	0.506	9.62	0.204	14.9	0.322	> 100	0.19	0.792	–	–	0.136	> 100
Brc1ccc(C=NC23CC4CC(CC(C4)C2)C3)cc1	–	> 100	–	> 100	–	> 100	–	> 100	–	–	–	–	–	> 100	–	> 100	–	> 100	–	> 100
CCCCCCCC(=O)OCC1OC(n2cc(F)c(=O)[nH]c2=O)C(N)C(O)C1O (centres undefined)	–	> 100	–	> 100	–	> 100	–	> 100	–	–	–	–	–	> 100	–	> 100	–	> 100	–	> 100
O=[N+]([O-])c1cc(I)cc(/C=N/NS(=O)(=O)c2ccc(Cl)cc2)c1O	–	59.7	–	36.1	–	33.1	–	–	–	–	–	–	–	45.1	–	49.4	–	54.9	–	57.1
CCCCc1n(Cc2ccc3ccccc3n2)cc[n+]1Cc1ccc2ccccc2n1	0.295	3.28	0.698	10.7	0.535	2.28	2.26	11.8	2.76	16.5	1.51	10.6	1.17	10.9	1.41	11.1	–	–	0.621	12.3
N#CC1(N2CCCC2)CCC2(CC1)OCCO2	–	> 100	–	> 100	–	> 10	–	> 100	–	–	–	–	–	> 100	–	> 100	–	> 100	–	> 100
O=C(CC1(O)C(=O)Nc2ccc([N+](=O)[O-])cc21)c1ccncc1 (centres undefined)	–	68.6	–	65	–	> 100	–	> 100	–	–	–	–	–	–	–	> 100	–	–	–	75.1
COc1cc2c(c(OC)c1OC)-c1c(c3ccc([N+](=O)[O-])cc3c(=O)n1CCCBr)C2=O	35	> 100	> 100	> 100	> 100	> 100	13.5	68.5	67.9	> 100	26.3	> 100	–	–	19.7	> 100	13.4	61.3	38.8	> 100
N#CC(C(=O)CCC(=O)Nc1cccc(C(F)(F)F)c1)c1ccccc1 (centres undefined)	–	> 100	–	> 100	–	–	–	> 100	–	–	–	–	–	> 100	–	> 100	–	> 100	–	> 100
O=C(Nc1ccccc1Cl)c1ccc(NC2=C(Cl)C(=O)N(C3CCCCC3)C2=O)cc1	7.35	34.2	9.25	28.4	18.7	38.3	9.4	31.8	6.75	133	13.6	45.5	6.87	23.3	–	–	22.9	56.5	2.88	17.9
CCC[CH2][Sn]1([CH2]CCC)[O]CC[S]1	0.162	0.551	0.848	2.13	0.969	3.29	1.02	2.36	–	–	–	–	1.55	4.64	0.818	2.12	0.221	1.51	0.15	1.28
CCN(CC)CCCNc1n[n+]([O-])c2ccccc2[n+]1[O-]	–	23.3	–	–	–	40.1	–	85.6	–	–	–	> 100	–	24.2	–	27.9	–	> 100	–	76.1
